US7973080B2 (Ambria Dermatology AB, priority 2003, dated 2011)

Experiments:
Assay in all cases: MIC by standard blood agar dilution technique
S. pyogenes, group A = tested on: S. pyogenes, group A
Description: (§1) The following bacteria were investigated: methicillin-resistant Staphylococcus aureus (MSRA), fucidic acid-resistant S. aureus, non-resistant S. pyogenes, coagulation-negative staphylococci (for resistance, see Table 1 below) vancomycin-resistant enterococci (Enterococcus CCUG van A and van B), non-resistant Escherichia coli, Acinetobacter resistant against cefadroxil, nitrofurantin, mecillinam, Serratia maltophilia resistant against most types of antibiotics, Enterobacter (for resistance, see Table 1 below; additionally resistant against cefadroxil and nitrofurantin), non-resistant α-streptococci, non-resistant Streptococcus Group G, Pseudomonas aeruginosa (for resistance, see Table 2 below). Inocula of 10^3 and 10^5 bacteria were used.

S. aureus = tested on: S. aureus
Description: as §1

Pseudomonas aeruginosa = tested on: Pseudomonas aeruginosa
Description: as §1

Acinetobacter = conditions: inoculate size 10^3
Description: as §1

Enterobacter = conditions: MR tri −
Description: as §1

S. maltophilia = conditions: inoculate size 10^3
Description: as §1

Enterococcus = Enterococcus 921 × 57002, MR fuc +, van −, tri −
Description: as §1

In the case of OCCCCCO [pentane-1,5-diol], the “MIC (% by weight of pentane-1,5-diol)” value (S. pyogenes, group A; group A 912 × 1090, inoculate size 10^3) was 7.5 % by weight, the “MIC (% by weight of pentane-1,5-diol)” value (S. pyogenes, group A; group A 912 × 1115, inoculate size 10^3) was 7.5 % by weight and the “MIC (% by weight of pentane-1,5-diol)” value (S. pyogenes, group A; group A 912 × 1119, inoculate size 10^3) was 7.5 % by weight. For the same compound, the “MIC (% by weight of pentane-1,5-diol)” value (S. pyogenes, group A; group A 912 × 1121, inoculate size 10^3) was 7.5 % by weight, the “MIC (% by weight of pentane-1,5-diol)” value (S. pyogenes, group A; group A 912 × 1131, inoculate size 10^3) was 7.5 % by weight and the “MIC (% by weight of pentane-1,5-diol)” value (S. aureus; S. aureus 916 × 8137, inoculate size 10^3, MR fuc −) was 12.5 % by weight. The “MIC (% by weight of pentane-1,5-diol)” value (S. aureus; S. aureus 916 × 8137, inoculate size 10^5, MR fuc −) was 10.0 % by weight, the “MIC (% by weight of pentane-1,5-diol)” value (S. aureus; S. aureus 916 × 8143, inoculate size 10^3, MR fuc −) was 12.5 % by weight and the “MIC (% by weight of pentane-1,5-diol)” value (S. aureus; S. aureus 916 × 8143, inoculate size 10^5, MR fuc −) was 12.5 % by weight. For the same compound, the “MIC (% by weight of pentane-1,5-diol)” value (S. aureus; S. aureus 916 × 8150, inoculate size 10^3, MR fuc −) was 12.5 % by weight, the “MIC (% by weight of pentane-1,5-diol)” value (S. aureus; S. aureus 916 × 8150, inoculate size 10^5, MR fuc −) was 15.0 % by weight and the “MIC (% by weight of pentane-1,5-diol)” value (S. aureus; S. aureus 916 × 8155, inoculate size 10^3, MR fuc −) was 10.0 % by weight. For the same compound, the “MIC (% by weight of pentane-1,5-diol)” value (S. aureus; S. aureus 916 × 8155, inoculate size 10^5, MR fuc −) was 12.5 % by weight, the “MIC (% by weight of pentane-1,5-diol)” value (S. aureus; S. aureus 916 × 8158, inoculate size 10^3, MR fuc −) was 12.5 % by weight and the “MIC (% by weight of pentane-1,5-diol)” value (S. aureus; S. aureus 916 × 8158, inoculate size 10^5, MR fuc −) was 15.0 % by weight. For the same compound, the “MIC (% by weight of pentane-1,5-diol)” value (S. aureus; S. aureus 916 × 8163, inoculate size 10^3, MR fuc +) was 12.5 % by weight, the “MIC (% by weight of pentane-1,5-diol)” value (S. aureus; S. aureus 916 × 8163, inoculate size 10^5, MR fuc +) was 17.5 % by weight and the “MIC (% by weight of pentane-1,5-diol)” value (S. aureus; S. aureus 916 × 8180, inoculate size 10^3, MR fuc −) was 12.5 % by weight. The “MIC (% by weight of pentane-1,5-diol)” value (S. aureus; S. aureus 916 × 8180, inoculate size 10^5, MR fuc −) was 15.0 % by weight, the “MIC (% by weight of pentane-1,5-diol)” value (S. aureus; S. aureus 916 × 8181, inoculate size 10^3, MR fuc −) was 12.5 % by weight and the “MIC (% by weight of pentane-1,5-diol)” value (S. aureus; S. aureus 916 × 8181, inoculate size 10^5, MR fuc −) was 15.0 % by weight. The “MIC (% by weight of pentane-1,5-diol)” value (S. aureus; S. aureus 916 × 8183, inoculate size 10^3, MR fuc −) was 12.5 % by weight, the “MIC (% by weight of pentane-1,5-diol)” value (S. aureus; S. aureus 916 × 8183, inoculate size 10^5, MR fuc −) was 17.5 % by weight and the “MIC (% by weight of pentane-1,5-diol)” value (S. aureus; S. aureus 916 × 8184, inoculate size 10^3, MR fuc +) was 10.0 % by weight. The “MIC (% by weight of pentane-1,5-diol)” value (S. aureus; S. aureus 916 × 8184, inoculate size 10^5, MR fuc +) was 12.5 % by weight, the “MIC (% by weight of pentane-1,5-diol)” value (S. aureus; S. aureus 916 × 8191, inoculate size 10^3, MR fuc −) was 12.5 % by weight and the “MIC (% by weight of pentane-1,5-diol)” value (S. aureus; S. aureus 916 × 8191, inoculate size 10^5, MR fuc −) was 15.0 % by weight. For the same compound, the “MIC (% by weight of pentane-1,5-diol)” value (Pseudomonas aeruginosa; P. aeruginosa 921 × 17701, inoculate size 10^3, MR cip +, tri +) was 5.0 % by weight, the “MIC (% by weight of pentane-1,5-diol)” value (Pseudomonas aeruginosa; P. aeruginosa 921 × 17748, inoculate size 10^3, MR cip −, tri +) was 5.0 % by weight and the “MIC (% by weight of pentane-1,5-diol)” value (Pseudomonas aeruginosa; P. aeruginosa 921 × 17756, inoculate size 10^3, MR cip +, tri +) was 5.0 % by weight. The “MIC (% by weight of pentane-1,5-diol)” value (Pseudomonas aeruginosa; P. aeruginosa 921 × 57855, inoculate size 10^5, MR van +, tri −) was 10.0 % by weight, the “MIC (% by weight of pentane-1,5-diol)” value (Pseudomonas aeruginosa; P. aeruginosa CCUG 17619, inoculate size 10^3) was 5.0 % by weight and the “MIC (% by weight of pentane-1,5-diol)” value (Pseudomonas aeruginosa; P. aeruginosa CCUG 17619, inoculate size 10^5) was 5.0 % by weight. For the same compound, the “MIC (% by weight of pentane-1,5-diol)” value (Acinetobacter; Acinetobacter 116 × 305) was 5.0 % by weight, the “MIC (% by weight of pentane-1,5-diol)” value (Acinetobacter; Acinetobacter 117 × 217) was 5.0 % by weight and the “MIC (% by weight of pentane-1,5-diol)” value (Acinetobacter; Acinetobacter 514 × 1224) was 5.0 % by weight. For the same compound, the “MIC (% by weight of pentane-1,5-diol)” value (Acinetobacter; Acinetobacter 516 × 748) was 2.5 % by weight, the “MIC (% by weight of pentane-1,5-diol)” value (Acinetobacter; Acinetobacter 921 × 16968) was 5.0 % by weight and the “MIC (% by weight of pentane-1,5-diol)” value (Acinetobacter; Acinetobacter 921 × 113359) was 2.5 % by weight. The “MIC (% by weight of pentane-1,5-diol)” value (Enterobacter; Enterobacter 921 × 57097, inoculate size 10^3) was 5.0 % by weight, the “MIC (% by weight of pentane-1,5-diol)” value (Enterobacter; Enterobacter 921 × 57097, inoculate size 10^5) was 10.0 % by weight and the “MIC (% by weight of pentane-1,5-diol)” value (Enterobacter; Enterobacter 921 × 57100, inoculate size 10^3) was 5.0 % by weight. For the same compound, the “MIC (% by weight of pentane-1,5-diol)” value (Enterobacter; Enterobacter 921 × 57100, inoculate size 10^5) was 10.0 % by weight, the “MIC (% by weight of pentane-1,5-diol)” value (Enterobacter; Enterobacter 921 × 57119, inoculate size 10^3) was 5.0 % by weight and the “MIC (% by weight of pentane-1,5-diol)” value (Enterobacter; Enterobacter 921 × 57119, inoculate size 10^5) was 10.0 % by weight. For the same compound, the “MIC (% by weight of pentane-1,5-diol)” value (Enterobacter; Enterobacter 921 × 57416, inoculate size 10^3) was 5.0 % by weight, the “MIC (% by weight of pentane-1,5-diol)” value (Enterobacter; Enterobacter 921 × 57416, inoculate size 10^5) was 10.0 % by weight and the “MIC (% by weight of pentane-1,5-diol)” value (Enterobacter; Enterobacter 921 × 57514, inoculate size 10^3) was 5.0 % by weight. The “MIC (% by weight of pentane-1,5-diol)” value (Enterobacter; Enterobacter 921 × 57514, inoculate size 10^5) was 10.0 % by weight, the “MIC (% by weight of pentane-1,5-diol)” value (Enterobacter; Enterobacter 921 × 57574, inoculate size 10^3) was 5.0 % by weight and the “MIC (% by weight of pentane-1,5-diol)” value (Enterobacter; Enterobacter 921 × 57574, inoculate size 10^5) was 10.0 % by weight. The “MIC (% by weight of pentane-1,5-diol)” value (S. maltophilia; S. maltophilia 515 × 695) was 5.0 % by weight, the “MIC (% by weight of pentane-1,5-diol)” value (S. maltophilia; S. maltophilia 515 × 1269) was 2.5 % by weight and the “MIC (% by weight of pentane-1,5-diol)” value (S. maltophilia; S. maltophilia 516 × 679) was 5.0 % by weight. For the same compound, the “MIC (% by weight of pentane-1,5-diol)” value (S. maltophilia; S. maltophilia 900 × 1230) was 5.0 % by weight, the “MIC (% by weight of pentane-1,5-diol)” value (S. maltophilia; S. maltophilia 921 × 16157) was 5.0 % by weight and the “MIC (% by weight of pentane-1,5-diol)” value (Enterococcus; inoculate size 10^3) was 7.5 % by weight. The “MIC (% by weight of pentane-1,5-diol)” value (Enterococcus; inoculate size 10^5) was 10.0 % by weight.
